The assay concerns the target T1, human 11-β-hydroxysteroid dehydrogenase type-1 enzyme (11-β-HSD1) (Homo sapiens, UniProt P28845).
T1 construct: made in house; host or cells: Pichia pastoris (cell homogenate or microsomes)
The assay is described as follows: Scintillation Proximity Assay, 11-β-HSD1 enzyme assay (Ki). It is filed as biochemical. The settings on record: human 11-β-HSD1 expressed in Pichia pastoris; Ki calculated from IC50 (Cheng-Prusoff). From the text: [1,2(n)—^3H]-cortisone was purchased from Amersham Pharmacia Biotech. Anti-cortisol monoclonal mouse antibody, clone 6D6.7 was obtained from Immunotech and Scintillation proximity assay (SPA) beads coated with monoclonal antimouse antibodies were from Amersham Pharmacia Biotech. NADPH, tetrasodium salt was from Calbiochem and glucose-6-phosphate (G-6-P) was supplied by Sigma. The human 11-β-hydroxysteroid dehydrogenase type-1 enzyme (11-β-HSD1) was expressed in Pichiapastoris. 18-β-glycyrrhetinic acid (GA) was obtained from Sigma. The serial dilutions of the compounds were performed on a Tecan Genesis RSP 150. Compounds to be tested were dissolved in DMSO (1 mM) and diluted in 50 mM Tris-HCl, pH 7.2 containing 1 mM EDTA.
The multiplication of plates was done on a WallacQuadra. The amount of the product [^3H]-cortisol, bound to the beads was determined in a Packard, Top Count microplate liquid scintillation counter.
The 11-β-HSD1 enzyme assay was carried out in 96 well microtiter plates (Packard, Optiplate) in a total well volume of 220 μL and contained 30 mM Tris-HCl, pH 7.2 with 1 mM EDTA, a substrate mixture tritiated Cortisone/NADPH (175 nM/181 μM), G-6-P (1 mM) and inhibitors in serial dilutions (9 to 0.15 μM). […]
The plates were covered with plastic film and incubated on a shaker for 30 minutes, at room temperature, before counting. The amount of [^3H]-cortisol, bound to the beads was determined in a microplate liquid scintillation counter. […] The Ki value is calculated from IC50 and the Km value is calculated using the Cheng Prushoff equation (with reversible inhibition that follows the Michaelis-Menten equation): […] [Cheng, Y. C.; Prushoff, W. H. Biochem. Pharmacol. 1973, 22, 3099-3108]. The IC50 is measured experimentally in an assay wherein the decrease of the turnover of cortisone to cortisol is dependent on the inhibition potential of each substance. […]
T1 sequence (P28845 whole entry): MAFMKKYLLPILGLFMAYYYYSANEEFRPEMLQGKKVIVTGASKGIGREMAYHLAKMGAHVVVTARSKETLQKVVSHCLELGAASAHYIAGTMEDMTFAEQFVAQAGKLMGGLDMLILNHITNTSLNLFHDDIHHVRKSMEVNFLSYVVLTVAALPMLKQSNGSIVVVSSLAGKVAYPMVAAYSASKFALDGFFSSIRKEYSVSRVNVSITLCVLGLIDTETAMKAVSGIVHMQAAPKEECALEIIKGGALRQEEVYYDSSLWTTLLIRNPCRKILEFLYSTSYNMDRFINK
Take `CC(C)C1SC(NC2(c3ccc(Cl)cc3)CCC2)=NC1=O` (stereo not drawn) [Example 48, 2-{[1-(4-Chlorophenyl)cyclobutyl]amino}-5-isopropyl-1,3-thiazol-4(5H)-one]: the Ki (commonly a measure of affinity in units of concentration, obtained from inhibition or displacement) was 174 nM.

As to `CC1(C)SC(NCC2CCCCC2)=NC1=O` [Example 14, 2-[(cyclohexylmethyl)amino]-5,5-dimethyl-1,3-thiazol-4(5H)-one], the Ki was 107 nM.

On to `O=C1N=C(NC2CCCCCC2)SC12CCC2` [Example 10, 6-(Cycloheptylamino)-5-thia-7-azaspiro[3.4]oct-6-en-8-one], for which the Ki was 250 nM.

(Values after US20070281938A1, “Inhibitors of 11-Beta-Hydroxy Steroid Dehydrogenase Type 1” (Amgen Inc., priority 2004, published 2007).)
